According to US20240385168A1, “SEMICONDUCTOR-BASED MEASUREMENT DEVICES” (CytoTronics, priority 2023, published 2024):
Entries after “also recorded” stand apart in the source; their conditions may differ.

Key:
MDCK cells = assay: Live-cell impedance measurements of MDCK cells after compound treatment (water transport, doming); type: cell-based, canine
Procedure: (§1) Impedance measurements were performed with two different electric field configurations named vertical field (VF) and lateral field (LF) and at four different frequencies of 250 Hz, 1 kHz, 4 kHz, and 16 kHz, as shown in FIG. 27A. In total, 9 impedance parameter maps were measured per field configuration, including magnitude and phase for the 4 frequencies and a Direct Current (DC, 0 Hz) magnitude. […] Connections were observed between biological information and measurements at frequency magnitudes, phases, and DC.
(§2) To perform field-based impedance measurements across multiple frequencies, a voltage stimulation was applied which is the summation of the four different frequency signals and return currents were measured using a transimpedance amplifier (TIA) configuration with a feedback gain of 18 MΩ. The magnitudes of the AC voltage signals were scaled to create similar output amplitudes that were measured by the TIA configuration (0.2 V/250 Hz, 0.08 V/1 kHz, 0.04 V/4 kHz, and 0.02 V/16 kHz for lateral field, 0.25 V/250 Hz, 0.1 V/1 kHz, 0.04 V/4 kHz, and 0.025 V/16 kHz for vertical field). Six of the 96 wells were scanned at a time taking 2.5 s, resulting in a total scan time across the well plate of 40 s. A fast Fourier transform (FFT) was used to extract the magnitude and phase of each of the four frequencies and the DC component—9 impedance parameter maps for each field configuration.
(§3) A reference impedance map was used to determine the location of cells: a threshold was set above the electrodes' default impedance in solution, and the presence of a cell above an electrode then increased the impedance beyond the threshold for detection. Typically, the VF 4 kHz map provided the best contrast for generating the cell mask. For magnitude, phase, and DC, the median value of electrodes with cells was then calculated. An additional epoxy mask was calculated in a similar manner to remove electrodes which had spillover epoxy from well plate attachment. Before each cell plating, a reference measurement was taken in empty culture media to calculate the epoxy mask.
(§4) Transient features such as motility and migration were generated from impedance videos through a root-mean-square (RMS) calculation. The difference between two unmasked image frames was taken (the epoxy mask was still used if applicable), then the RMS calculation was performed across the pixels of the difference map. To normalize for changes in magnitude, the calculated RMS was then divided by the median value of the cell-masked well distribution. Typically, the VF 4 kHz map was used for the RMS signal generation.
(§5) Compound treatments were performed using a half media exchange. To prepare for compound addition, half the media from each well was removed. […]

[1] = tested on: autosomal dominant polycystic kidney disease (ADPKD); conditions: cited from earlier work
Caco-2 cells [2] = assay: Caco-2 impedance barrier function measurements (341 compound screen, dose response, Amonafide analogues); type: cell-based, human; conditions: for change in Caco-2 barrier function at 12 hours post-compound application: 10 μM, versus control; for barrier increase (maximum VF 250 Hz) over the 48-hours: screen at 10 μM
Procedure: To execute and analyze the screens, cells were seeded on five CMOS 96-wellplates, allowed to grow for 24 hours for A549 or 48 hours for Caco-2, compounds were added at 10 μM in 1% DMSO via a half media swap using an OpenTrons liquid handling robot. Effects were measured for 48 hours, with impedance measurements taken every 15 minutes. The many field/frequency and calculated parameters were then normalized to a timepoint one hour before compound addition. The array of normalized parameters at timepoints logarithmically spaced from compound addition to +48 hours were then used for a principal component analysis (PCA) and unbiased clustering using the top 20 PCA dimensions.
Compound treatments were performed using a half media exchange. To prepare for compound addition, half the media from each well was removed. Compounds were prepared at 2× concentration in cell culture media, and the 2× compound solution was then added to the wells. Care was taken to keep DMSO concentration below 1%, compound dilutions were performed with a constant DMSO concentration. Compound in media was temperature- and CO2-equilibrated prior to addition. All compounds including the 341 compound library were obtained from Selleckchem Chemicals (Houston, TX). For the screening analysis, the pathway and target information provided by Selleckchem Chemicals was curated together.
In the second approach, rather than comparing 5 measurement parameters, all field and calculation parameters were used to perform an unbiased phenotypic profiling with a larger compound library. A total of 341 compounds were chosen as a sub-set of an FDA approved library and applied on two cell types, A549 and Caco-2. At least two compounds per target were chosen for conserved phenotype effects. For the screens, compounds were added 24 or 48 hours post cell seeding and measured up to 48 hours after the compound addition. Time normalization, a principal component analysis (PCA), and unbiased clustering were sequentially performed on the high-dimensional data readouts (VF & LF magnitudes, phase, and DC). This unbiased approach ensured compound separation based solely on functional and morphological effects of the cells, with no bias of the targets/pathways of the compounds.

ZO-1 in Caco-2 cells = assay: Immunofluorescence imaging and quantification of ZO-1 in Caco-2 cells; type: cell-based, human; conditions: 48 hours post-compound treatment
Procedure: For immunofluorescence imaging, cells were grown on coverslips and then either allowed to grow for 48 hours or treated with relevant compounds for 48 hours. Cells were then fixed in 4% paraformaldehyde, washed, permeabilized with 0.5% Triton-X 100 in PBS, and then subjected to antibody incubation. Antibodies used were anti-E-Cadherin (obtained from Cell Signaling Technology, Danvers, MA, as cat no: 3195T), anti-ZO1 (obtained from Thermo Fisher, Waltham, MA, as cat no:617300) and anti-Occludin (obtained from Thermo Fisher as cat no: 331500). Alexa Fluor 488 and 568 secondary antibodies were used. Coverslips were mounted in Vectashield® antifade mounting medium with DAPI.
Imaging was performed using a Yokogawa Wi spinning disk confocal on an inverted Nikon Ti fluorescence microscope equipped with Hamamatsu ORCA-Fusion BT CMOS camera (6.5 μm^2 photodiode), Lumencor SOLA fluorescence light source, and Nikon LUN-F XL solid state laser combiner: 405 nm (80 mW), 445 nm (35 mW), 488 nm (80 mW), 514 nm (50 mW), 561 nm (65 mW), and 640 nm (60 mW). For imaging, the widefield modality of the microscope was typically used, and all imaging was done using a 20× objective. Acquisition was performed using consistent exposure across samples to enable intensity quantification. Images were processed using the open source image processing software FIJI.
Quantification of ZO-1 in the cell-membrane and nucleus was performed by manually defining ROIs for the cell membrane and nucleus. Mean integrated intensity was calculated within the ROI. All quantification was performed in raw, unprocessed images.

Caco-2 cells [3] = assay: Caco-2 impedance barrier function measurements (341 compound screen, dose response, Amonafide analogues); type: cell-based, human; conditions: dose response 1 nM to 10 μM
many cell types = assay: Vertical field (VF) impedance across many cell types; type: cell-based
Procedure: as §1, §2

MDA-MB-231 cells = assay: Live-cell impedance measurements of MDA-MB-231 cells after compound treatment; type: cell-based, human
Procedure: as §1, §2, §3, §4, §5

COc1cc(Nc2ncc3c(n2)-c2ccc(Cl)cc2C(c2c(F)cccc2OC)=NC3)ccc1C(=O)O [Alisertib]
cell surface attachment (MDCK cells): sharp decrease | transepithelial water transport (MDCK cells): accelerated | domes (doming) (MDCK cells; Alisertib 1 μM, Bosutinib 10 μM): increased doming; also recorded: Domes were only observed | water transport detachment (LF 16 kHz) with respect to the control (MDCK cells; mean±s.d. for 3 wells): accelerated | ADPKD in animal models [1]: exacerbate

CN(C)CCN1C(=O)c2cccc3cc(N)cc(c23)C1=O [Amonafide]
change in Caco-2 barrier function at 12 hours post-compound application (Caco-2 cells [2]): rapid increase in barrier | barrier increase (maximum VF 250 Hz) over the 48-hours (Caco-2 cells [2]): largest barrier increase; also recorded: highest observed increase in barrier | ZO-1 levels and distribution (membrane, nucleus) (ZO-1 in Caco-2 cells): increase in membrane ZO-1 levels, with additional nuclear localization; also recorded: Significant increases in ZO-1 in the membrane and nucleus | time course of barrier increase (Caco-2 cells [3]): rapid increase in barrier; also recorded: rapid and sustained increase

COc1ccc(C[C@H]2NC[C@H](O)[C@H]2OC(C)=O)cc1 [Anisomycin]
VF (vertical field impedance) (many cell types): increases in VF

Cc1cc(C2CCCCC2)n(O)c(=O)c1 [Ciclopirox]
barrier increase (maximum VF 250 Hz) over the 48-hours (Caco-2 cells [2]): largest barrier increase; also recorded: increased the barrier; also recorded: highest observed increase in barrier | ZO-1 levels and distribution (membrane, nucleus) (ZO-1 in Caco-2 cells): did not affect ZO-1 distribution or expression | time course of barrier increase (Caco-2 cells [3]): more gradual increase in barrier

C=C1[C@@H](C)[C@H]2[C@H](Cc3ccccc3)NC(=O)[C@]23[C@H](OC(C)=O)/C=C/[C@@](C)(O)C(=O)[C@@H](C)C/C=C/[C@H]3[C@@H]1O [Cytochalasin D]
attachment (MDA-MB-231 cells): decreased | concentration giving immediate cell size decrease (MDA-MB-231 cells): ≥ 0.2 µM | concentration giving subsequent cell size increase (MDA-MB-231 cells): ≥ 1 µM | motility (RMS) (MDA-MB-231 cells): decrease

CCN(CC)CCN1C(=O)c2cccc3cc(N)cc(c23)C1=O [NSC 308848]
change in Caco-2 barrier function at 12 hours post-compound application (Caco-2 cells [2]): rapid increase in barrier | ZO-1 levels and distribution (membrane, nucleus) (ZO-1 in Caco-2 cells): Significant increases in ZO-1 in the membrane and nucleus

CN(C)CCN1C(=O)c2cccc3cc(NC(N)=O)cc(c23)C1=O [UNBS5162]
change in Caco-2 barrier function at 12 hours post-compound application (Caco-2 cells [2]): did not affect the barrier | ZO-1 levels and distribution (membrane, nucleus) (ZO-1 in Caco-2 cells): did not affect ZO-1 levels or distribution
